≈ marks a conversion by molar mass, not a printed value.
Key:
[1] = test system: MRSA (oxacillin/methicillin resistant S. aureus); assay: NCCLS MIC/MBC microdilution, MRSA; settings: Table 3; 24 h and 48 h same results
Description: (§1) Standard NCCLS (e.g., National Committee for Clinical Laboratory Standards) methods for determining MIC (e.g., minimum inhibitory concentration) and MBC (e.g., minimum bactericidal concentration) were used. 96 well micro-well plates were placed in a humid chamber and frozen at −70° C. [BBL Mueller Hinton Broth]. Drugs (e.g., antimicrobial compounds of the present invention) were added to a series of wells through 2 fold serial dilutions. 100 μl of a 2×10^−3 M solution of the respective Tx compounds was added to the first well in a series. 100 μl of the inoculum (e.g., microorganism) was added to the well. […] For example, the concentration in well 8 would be less than the concentration of the same drug in well 7. Inoculum (e.g., microorganism) that was added to the wells was prepared from 24 hour growth of an isolate on 5% sheep blood/Columbia agar plates. 5 to 10 representative colonies were then picked from the plates and added to saline and adjusted to 0.5 McFarland turbidity. Next the sample was diluted 1:100 in saline, such that 100 μl of the diluted sample contained approximately 1×10^5 microbes. 100 μl of the diluted sample was added to each well in a series of drug concentrations. Once the cells were added to the wells, the well plates were incubated at 35° C. without CO2 for 48 hrs and at this time the minimum bactericidal concentration was determined.
(§2) The MIC of Tx-118, Tx-147, and Tx-197 for certain Staphylococcus aureus (MRSA), Pseudomonas aeruginosa, Stenotrophomonas maltophilia, and VRE Enterococcus faecalis was determined using standard NCCLS methods. The first well in each series of decreasing drug concentrations contained 1×10^−4 M of a drug. The drug was diluted by serial two fold dilutions through all 12 wells in a series. There was a final DMSO concentration of 2% in the first well and 1% in the second well, etc. Tests with Tx-118 and Tx-197 were performed in triplicate, and tests with Tx-147 were performed in duplicate.

P. aeruginosa = assay: NCCLS MIC/MBC microdilution, P. aeruginosa; settings: Table 3; P. aeroginosa is L13 from Table 2
Description: as §1, §2

[2] = test system: VRE (Vancomycin resistant Enterococci); assay: NCCLS MIC/MBC microdilution, VRE; settings: Table 3; 24 h and 48 h same results
Description: as §1, §2

Mycobacterium fortutium = assay: MIC, Mycobacterium fortutium; type: cell-based; settings: Table 3
[3] = test system: Stenotrophomonas maltophilia; assay: NCCLS MIC/MBC microdilution, S. maltophilia; settings: Table 3; 24 h and 48 h same results
Description: as §1, §2

[4] = test system: chloroquin (CQ) resistant strain of Plasmodium falciparum (Pf); assay: In vitro efficacy against chloroquin resistant Plasmodium falciparum; type: cell-based; settings: CQ resistant P. falciparum, in vitro, triplicate
Description: Tx-5 and Tx-84 were tested for in vitro efficacy against a chloroquin (CQ) resistant strain of Plasmodium falciparum (Pf). The tests were performed in triplicate at a wide variety of concentrations and evaluated for effect compared with CQ.

[5] = test system: Mycobacterium tuberculosis; settings: Table 3
M. avium intracellularie = assay: MIC, M. avium intracellularie; type: cell-based, Mycobacterium avium intracellulare; settings: Table 3
various microorganisms = assay: Antimicrobial activity tests, various microorganisms; settings: Example 1 microbes

Compound: O=C1[C@@H](O)[C@H](c2ccccc2)N1c1cc2c3ccccc3ccc2c2ccccc12 (relative stereo) [Tx-197, Trans-1-N-(6′-chrysenyl)-3-hydroxy-4-phenyl-2-azetidinone]
- MIC, MRSA (methicillin resistant) [1]: No activity
- MIC, P. aeruginosa (P. aeruginosa): No activity
- MIC, VRE enterococcus (E. faecalis) [2]: No activity
- MIC, Mycobacterium fortutium (Mycobacterium fortutium): No activity
- MIC, Stenotrophomonas maltophilia [3]: No activity

Compound: CCN(CC)CCCC(C)Nc1ccnc2cc(Cl)ccc12 (stereo not shown) [CQ, chloroquin, reference compound]
- IC50 [4]: 606 nM

Compound: CN1CCN(C(=O)CCC(=O)Nc2cc3c4ccccc4ccc3c3ccccc23)CC1 [Tx-1, N-(6′-chrysenyl)-4-(4′N methyl-piperazinyl)-butane-1,4-dicarboxiamide]
- MIC, Mycobacterium tuberculosis [5]: 2.9 µg/mL (≈ 6.81 µM)
- MIC, M. avium intracellularie (M. avium intracellularie): 46 µg/mL (≈ 108 µM)

Compound: CN1CCN(C(=O)CCC(=O)Nc2ccc3c(ccc4c5ccccc5ccc34)c2)CC1 [Tx-2, N-(2′-chrysenyl)-4-(4′N-methyl-piperazinyl)-butane-1,4-dicarboxiamide]
- MIC, Mycobacterium tuberculosis [5]: 1 µg/mL (≈ 2.35 µM)
- MIC, M. avium intracellularie (M. avium intracellularie): 15.6 µg/mL (≈ 36.7 µM)

Compound: O=C(CCC(=O)N1CCCCC1)Nc1cc2c3ccccc3ccc2c2ccccc12 [Tx-3, N-(6′-chrysenyl)-4-(1′-piperidinyl)-butane-1-4-dicarboxiamide]
- MIC, Mycobacterium tuberculosis [5]: .125 µg/mL (≈ 0.304 µM)
- MIC, M. avium intracellularie (M. avium intracellularie): .98 µg/mL (≈ 2.39 µM)

Compound: O=C(CCC(=O)N1CCCCC1)Nc1ccc2c(ccc3c4ccccc4ccc23)c1 [Tx-4, N-(2′-chrysenyl)-4-(1′-piperidinyl)-butane-1,4-dicarboxiamide]
- MIC, Mycobacterium tuberculosis [5]: .1 µg/mL (≈ 0.244 µM)
- MIC, M. avium intracellularie (M. avium intracellularie): .82 µg/mL (≈ 2 µM)

Compound: CN1CCN(C(=O)CCC(=O)Nc2cc3c4ccccc4c(Br)cc3c3ccccc23)CC1 [Tx-9, N-(12′-bromo, 6′-chrysenyl)-4-(4′N methyl-piperazinyl)-butane-1,4-dicarboxiamide]
- growth in wells (activity) (various microorganisms): +3 growth (e.g., no activity)

Compound: CN1CCN(C(=O)CCC(=O)Nc2ccc3c(c2)c(Br)cc2c4ccccc4ccc32)CC1 [Tx-10, N-(12′-bromo, 2′-chrysenyl)-4-(4′N methyl-piperazinyl)-butane-1,4-dicarboxiamide]
- growth in wells (activity) (various microorganisms): +3 growth (e.g., no activity)

From US20050107430A1, “Antimicrobial and antiviral compounds” (priority 2003, published 2005)
